pIC50: −log10 of the molar value.
Experiments:
PDE10A = biological target: T1, PDE10A (Homo sapiens, UniProt Q9Y233); test: PDE inhibition, recombinant PDE10A (SPA); assay type: biochemical; settings: human isoenzyme
T1 construct: made in house; host or cells: Sf9 (baculovirus, pFASTBAC)
Source text: (§1) Recombinant PDE1C (GenBank/EMBL Accession Number: NM_005020, Loughney et al. J. Biol. Chem. 1996 271, 796-806), PDE2A (GenBank/EMBL Accession Number: NM_002599, Rosman et al. Gene 1997 191, 89-95), PDE3B (GenBank/EMBL Accession Number: NM_000922, Miki et al. Genomics 1996, 36, 476-485), PDE4B (GenBank/EMBL Accession Number: NM_002600, Obernolte et al. Gene. 1993, 129, 239-247), PDE5A (GenBank/EMBL Accession Number: NM_001083, Loughney et al. Gene 1998, 216, 139-147), PDE7B (GenBank/EMBL Accession Number: NM_018945, Hetman et al. Proc. Natl. Acad. Sci. U.S.A. 2000, 97, 472-476), PDE8A (GenBank/EMBL Accession Number: AF—056490, Fisher et al. Biochem. Biophys. Res. Commun. 1998, 246, 570-577), PDE9A (Fisher et al., J. Biol. Chem., 1998, 273 (25): 15559-15564), PDE10A (GenBank/EMBL Accession Number: NM_06661, Fujishige et al. J Biol Chem. 1999, 274, 18438-45), PDE11A (GenBank/EMBL Accession Number: NM_016953, Fawcett et al. Proc. Natl. Acad. Sci. 2000, 97, 3702-3707) were expressed in Sf9 cells with the aid of the pFASTBAC baculovirus expression system (GibcoBRL).
(§2) The test substances are dissolved in 100% DMSO and serially diluted to determine their in vitro effect on PDE9A. Typically, serial dilutions from 200 μM to 1.6 μM are prepared (resulting final concentrations in the assay: 4 μM to 0.032 μM). 2 μl portions of the diluted substance solutions are introduced into the wells of microtitre plates (Isoplate; Wallac Inc., Atlanta, Ga.). Then 50 μl of a dilution of the PDE9A preparation described above are added. […] The plates are then measured for 30 s per well in a Microbeta scintillation counter (Wallac Inc., Atlanta, Ga.). IC50 values are determined from the graphical plot of the substance concentration versus the percentage inhibition.
(§3) The in vitro effect of test substances on recombinant PDE3B, PDE4B, PDE7B, PDE8A, PDE10A and PDE11A is determined by the assay protocol described above for PDE9A with the following adaptations: the substrate used is [5′,8-^3H]adenosine 3′,5′-cyclic phosphate (1 μCi/μl; Amersham Pharmacia Biotech., Piscataway, N.J.). […]

PDE3B = biological target: T2, PDE3B (Homo sapiens, UniProt Q13370); test: PDE inhibition, recombinant PDE3B (SPA); assay type: biochemical; settings: human isoenzyme
T2 construct: made in house; host or cells: Sf9 (baculovirus, pFASTBAC)
T2 sequence (Q13370 whole entry): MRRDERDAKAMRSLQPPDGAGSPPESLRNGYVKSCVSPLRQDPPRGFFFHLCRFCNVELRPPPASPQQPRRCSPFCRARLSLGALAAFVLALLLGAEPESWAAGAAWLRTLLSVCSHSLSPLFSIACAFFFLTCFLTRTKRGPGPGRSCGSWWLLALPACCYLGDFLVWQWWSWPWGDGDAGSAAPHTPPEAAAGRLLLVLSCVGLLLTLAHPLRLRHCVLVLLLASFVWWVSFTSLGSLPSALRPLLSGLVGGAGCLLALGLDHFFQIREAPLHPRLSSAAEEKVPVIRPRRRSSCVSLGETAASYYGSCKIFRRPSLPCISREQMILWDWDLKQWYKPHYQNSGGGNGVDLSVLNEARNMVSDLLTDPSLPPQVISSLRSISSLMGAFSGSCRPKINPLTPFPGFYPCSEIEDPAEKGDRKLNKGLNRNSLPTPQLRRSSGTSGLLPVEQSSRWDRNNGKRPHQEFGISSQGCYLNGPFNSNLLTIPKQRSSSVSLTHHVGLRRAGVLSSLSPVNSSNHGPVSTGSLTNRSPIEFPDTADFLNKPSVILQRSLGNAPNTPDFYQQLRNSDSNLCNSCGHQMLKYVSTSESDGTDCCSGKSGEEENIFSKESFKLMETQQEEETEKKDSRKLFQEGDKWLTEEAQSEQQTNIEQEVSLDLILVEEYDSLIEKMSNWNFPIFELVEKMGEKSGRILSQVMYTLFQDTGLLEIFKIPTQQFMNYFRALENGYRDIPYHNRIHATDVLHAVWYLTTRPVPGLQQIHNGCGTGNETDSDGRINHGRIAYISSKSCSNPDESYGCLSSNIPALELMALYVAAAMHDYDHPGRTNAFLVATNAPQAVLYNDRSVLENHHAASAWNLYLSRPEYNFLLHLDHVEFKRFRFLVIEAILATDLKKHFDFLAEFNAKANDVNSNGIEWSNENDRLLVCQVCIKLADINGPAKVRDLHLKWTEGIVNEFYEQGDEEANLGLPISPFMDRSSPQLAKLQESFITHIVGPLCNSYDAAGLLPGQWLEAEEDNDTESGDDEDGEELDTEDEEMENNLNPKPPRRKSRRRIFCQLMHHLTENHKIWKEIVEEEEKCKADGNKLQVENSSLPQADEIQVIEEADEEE
Source text: as §1, §2, §3

PDE1C = biological target: T3, PDE1C (Homo sapiens, UniProt Q14123); test: PDE inhibition, recombinant PDE1C (SPA); assay type: biochemical; settings: human isoenzyme
T3 construct: made in house; host or cells: Sf9 (baculovirus, pFASTBAC)
Source text: as §1, §2, §3

PDE4B = PDE4B (Homo sapiens, UniProt Q07343); test: PDE inhibition, recombinant PDE4B (SPA); assay type: biochemical; settings: human isoenzyme
PDE4B, sequence (Q07343 212-736 limits assumed): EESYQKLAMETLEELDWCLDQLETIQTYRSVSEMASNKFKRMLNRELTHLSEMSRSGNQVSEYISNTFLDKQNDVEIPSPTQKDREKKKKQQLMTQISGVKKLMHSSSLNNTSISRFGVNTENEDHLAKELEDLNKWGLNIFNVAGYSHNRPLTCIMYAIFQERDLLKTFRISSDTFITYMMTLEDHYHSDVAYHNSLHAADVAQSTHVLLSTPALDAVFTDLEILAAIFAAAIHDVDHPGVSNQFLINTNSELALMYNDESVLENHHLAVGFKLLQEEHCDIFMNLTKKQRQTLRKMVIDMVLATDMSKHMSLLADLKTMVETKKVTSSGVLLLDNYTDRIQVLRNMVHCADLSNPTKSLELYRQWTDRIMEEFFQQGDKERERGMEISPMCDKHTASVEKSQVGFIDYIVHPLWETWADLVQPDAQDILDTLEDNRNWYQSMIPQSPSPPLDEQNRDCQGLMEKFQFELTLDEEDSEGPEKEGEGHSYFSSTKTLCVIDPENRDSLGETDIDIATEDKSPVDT
Source text: as §1, §2, §3

PDE11A = biological target: T4, PDE11A (Homo sapiens, UniProt Q9HCR9); test: PDE inhibition, recombinant PDE11A (SPA); assay type: biochemical; settings: human isoenzyme, read-out: IC50 PDE11
T4 construct: made in house; host or cells: Sf9 (baculovirus, pFASTBAC)
T4 sequence (Q9HCR9 445-933 limits assumed): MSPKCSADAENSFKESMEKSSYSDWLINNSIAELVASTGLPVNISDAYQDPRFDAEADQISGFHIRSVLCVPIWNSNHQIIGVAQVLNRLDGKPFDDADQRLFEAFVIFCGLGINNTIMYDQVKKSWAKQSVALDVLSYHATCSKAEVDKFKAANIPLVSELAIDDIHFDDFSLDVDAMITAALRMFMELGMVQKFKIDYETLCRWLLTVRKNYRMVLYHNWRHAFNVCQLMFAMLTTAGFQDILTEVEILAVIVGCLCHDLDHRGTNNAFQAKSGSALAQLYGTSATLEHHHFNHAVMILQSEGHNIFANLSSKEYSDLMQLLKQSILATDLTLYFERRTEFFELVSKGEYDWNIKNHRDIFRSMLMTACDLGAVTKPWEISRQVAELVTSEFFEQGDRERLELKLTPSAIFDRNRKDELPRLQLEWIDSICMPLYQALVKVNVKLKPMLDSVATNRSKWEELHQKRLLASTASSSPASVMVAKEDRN
Source text: as §1, §2, §3

PDE7B = biological target: T5, PDE7B (Homo sapiens, UniProt Q9NP56); test: PDE inhibition, recombinant PDE7B (SPA); assay type: biochemical; settings: human isoenzyme
T5 construct: made in house; host or cells: Sf9 (baculovirus, pFASTBAC)
T5 sequence (Q9NP56 whole entry): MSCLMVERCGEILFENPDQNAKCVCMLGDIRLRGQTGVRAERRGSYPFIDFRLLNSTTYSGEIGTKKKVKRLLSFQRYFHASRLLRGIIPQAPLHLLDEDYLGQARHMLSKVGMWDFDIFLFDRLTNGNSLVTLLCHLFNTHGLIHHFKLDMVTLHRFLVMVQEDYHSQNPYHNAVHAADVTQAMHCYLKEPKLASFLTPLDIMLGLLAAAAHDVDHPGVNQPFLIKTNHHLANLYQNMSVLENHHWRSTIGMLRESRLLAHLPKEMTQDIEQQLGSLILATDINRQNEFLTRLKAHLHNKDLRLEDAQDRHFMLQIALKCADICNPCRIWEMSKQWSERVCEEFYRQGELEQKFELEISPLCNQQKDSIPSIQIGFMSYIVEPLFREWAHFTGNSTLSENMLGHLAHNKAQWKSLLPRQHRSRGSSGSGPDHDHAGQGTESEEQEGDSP
Source text: as §1, §2, §3

PDE2A = biological target: T6, PDE2A (Homo sapiens, UniProt O00408); test: PDE inhibition, recombinant PDE2A (SPA); assay type: biochemical; settings: human isoenzyme
T6 construct: made in house; host or cells: Sf9 (baculovirus, pFASTBAC)
T6 sequence (O00408 whole entry): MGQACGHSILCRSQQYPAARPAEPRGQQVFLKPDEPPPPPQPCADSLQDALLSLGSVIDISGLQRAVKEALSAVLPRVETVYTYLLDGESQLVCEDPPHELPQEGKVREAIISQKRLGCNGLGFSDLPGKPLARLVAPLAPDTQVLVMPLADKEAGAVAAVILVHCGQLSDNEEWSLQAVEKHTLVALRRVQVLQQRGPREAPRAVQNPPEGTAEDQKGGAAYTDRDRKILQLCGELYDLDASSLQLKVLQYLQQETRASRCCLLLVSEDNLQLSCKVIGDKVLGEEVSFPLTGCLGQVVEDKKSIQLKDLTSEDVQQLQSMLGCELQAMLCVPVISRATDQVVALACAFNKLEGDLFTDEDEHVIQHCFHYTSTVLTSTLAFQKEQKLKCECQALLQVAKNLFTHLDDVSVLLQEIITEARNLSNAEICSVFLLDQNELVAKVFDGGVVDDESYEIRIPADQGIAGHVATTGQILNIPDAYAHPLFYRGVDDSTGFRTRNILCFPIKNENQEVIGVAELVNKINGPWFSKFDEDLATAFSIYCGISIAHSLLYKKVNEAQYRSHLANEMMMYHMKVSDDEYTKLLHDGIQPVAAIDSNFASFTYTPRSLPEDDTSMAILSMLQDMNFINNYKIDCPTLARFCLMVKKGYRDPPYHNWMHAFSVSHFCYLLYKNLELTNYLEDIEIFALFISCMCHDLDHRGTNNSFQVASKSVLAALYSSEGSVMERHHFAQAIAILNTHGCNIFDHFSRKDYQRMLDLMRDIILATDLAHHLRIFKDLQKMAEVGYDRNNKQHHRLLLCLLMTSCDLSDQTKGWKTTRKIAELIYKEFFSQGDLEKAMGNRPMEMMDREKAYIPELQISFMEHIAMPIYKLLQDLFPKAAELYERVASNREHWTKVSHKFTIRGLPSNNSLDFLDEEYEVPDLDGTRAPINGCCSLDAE
Source text: as §1, §2, §3

PDE9A [1] = biological target: T7, PDE9A (Homo sapiens, UniProt O76083); test: PDE inhibition, recombinant PDE9A (SPA); assay type: biochemical; design: made in house; host or cells: Sf9 (baculovirus, pFASTBAC); settings: human isoenzyme
T7 sequence (O76083 whole entry): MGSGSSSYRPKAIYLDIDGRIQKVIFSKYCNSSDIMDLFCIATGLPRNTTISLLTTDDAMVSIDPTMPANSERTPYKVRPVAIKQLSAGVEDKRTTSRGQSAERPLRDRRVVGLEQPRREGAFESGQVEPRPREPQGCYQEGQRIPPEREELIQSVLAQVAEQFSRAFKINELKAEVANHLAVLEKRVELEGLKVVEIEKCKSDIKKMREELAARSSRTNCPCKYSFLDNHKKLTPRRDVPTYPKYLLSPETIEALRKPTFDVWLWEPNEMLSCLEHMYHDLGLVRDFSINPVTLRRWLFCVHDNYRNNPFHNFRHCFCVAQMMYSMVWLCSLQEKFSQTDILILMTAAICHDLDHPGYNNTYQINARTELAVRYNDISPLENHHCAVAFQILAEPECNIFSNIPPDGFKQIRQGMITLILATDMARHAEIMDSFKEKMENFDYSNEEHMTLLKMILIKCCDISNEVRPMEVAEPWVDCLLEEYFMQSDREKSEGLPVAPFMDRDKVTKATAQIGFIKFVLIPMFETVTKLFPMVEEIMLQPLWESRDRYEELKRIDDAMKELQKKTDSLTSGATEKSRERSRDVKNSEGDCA
Description: The dilution of the PDE9A preparation is chosen so that less than 70% of the substrate is converted during the subsequent incubation (typical dilution: 1:10 000; dilution buffer: 50 mM Tris/HCl pH 7.5, 8.3 mM MgCl2, 1.7 mM EDTA, 0.2% BSA). […] The plates are then measured for 30 s per well in a Microbeta scintillation counter (Wallac Inc., Atlanta, Ga.). IC50 values are determined from the graphical plot of the substance concentration versus the percentage inhibition.

PDE8A = biological target: T8, PDE8A (Homo sapiens, UniProt O60658); test: PDE inhibition, recombinant PDE8A (SPA); assay type: biochemical; settings: human isoenzyme
T8 construct: made in house; host or cells: Sf9 (baculovirus, pFASTBAC)
Source text: Recombinant PDE1C (GenBank/EMBL Accession Number: NM_005020, Loughney et al. J. Biol. Chem. 1996 271, 796-806), PDE2A (GenBank/EMBL Accession Number: NM_002599, Rosman et al. Gene 1997 191, 89-95), PDE3B (GenBank/EMBL Accession Number: NM_000922, Miki et al. Genomics 1996, 36, 476-485), PDE4B (GenBank/EMBL Accession Number: NM_002600, Obernolte et al. Gene. 1993, 129, 239-247), PDE5A (GenBank/EMBL Accession Number: NM_001083, Loughney et al. Gene 1998, 216, 139-147), PDE7B (GenBank/EMBL Accession Number: NM_018945, Hetman et al. Proc. Natl. Acad. Sci. U.S.A. 2000, 97, 472-476), PDE8A (GenBank/EMBL Accession Number: AF—056490, Fisher et al. Biochem. Biophys. Res. Commun. […]
The test substances are dissolved in 100% DMSO and serially diluted to determine their in vitro effect on PDE9A. […] The plates are then measured for 30 s per well in a Microbeta scintillation counter (Wallac Inc., Atlanta, Ga.). IC50 values are determined from the graphical plot of the substance concentration versus the percentage inhibition.
as §3

PDE9A [2] = biological target: T7, PDE9A; settings: concentrations of up to 100 μM; cited from earlier work
Murine PDE9A = biological target: T9, Murine PDE9A (Mus musculus, UniProt O70628); settings: concentrations below 200 μM; cited from earlier work
T9 sequence (O70628 1-534): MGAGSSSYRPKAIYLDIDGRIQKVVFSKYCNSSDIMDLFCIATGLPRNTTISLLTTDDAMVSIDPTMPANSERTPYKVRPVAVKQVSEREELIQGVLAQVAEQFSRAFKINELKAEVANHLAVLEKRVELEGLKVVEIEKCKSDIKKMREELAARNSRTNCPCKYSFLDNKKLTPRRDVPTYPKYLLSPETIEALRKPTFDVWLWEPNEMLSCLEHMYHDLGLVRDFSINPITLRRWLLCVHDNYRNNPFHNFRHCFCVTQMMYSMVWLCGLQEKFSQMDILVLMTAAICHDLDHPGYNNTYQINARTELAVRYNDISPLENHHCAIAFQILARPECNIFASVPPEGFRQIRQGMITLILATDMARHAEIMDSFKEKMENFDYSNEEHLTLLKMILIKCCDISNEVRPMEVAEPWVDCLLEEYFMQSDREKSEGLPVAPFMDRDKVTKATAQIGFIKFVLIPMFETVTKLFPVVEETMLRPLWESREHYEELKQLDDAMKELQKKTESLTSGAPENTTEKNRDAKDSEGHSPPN

T1 sequence (Q9Y233 1-779 isoform Q9Y233-1): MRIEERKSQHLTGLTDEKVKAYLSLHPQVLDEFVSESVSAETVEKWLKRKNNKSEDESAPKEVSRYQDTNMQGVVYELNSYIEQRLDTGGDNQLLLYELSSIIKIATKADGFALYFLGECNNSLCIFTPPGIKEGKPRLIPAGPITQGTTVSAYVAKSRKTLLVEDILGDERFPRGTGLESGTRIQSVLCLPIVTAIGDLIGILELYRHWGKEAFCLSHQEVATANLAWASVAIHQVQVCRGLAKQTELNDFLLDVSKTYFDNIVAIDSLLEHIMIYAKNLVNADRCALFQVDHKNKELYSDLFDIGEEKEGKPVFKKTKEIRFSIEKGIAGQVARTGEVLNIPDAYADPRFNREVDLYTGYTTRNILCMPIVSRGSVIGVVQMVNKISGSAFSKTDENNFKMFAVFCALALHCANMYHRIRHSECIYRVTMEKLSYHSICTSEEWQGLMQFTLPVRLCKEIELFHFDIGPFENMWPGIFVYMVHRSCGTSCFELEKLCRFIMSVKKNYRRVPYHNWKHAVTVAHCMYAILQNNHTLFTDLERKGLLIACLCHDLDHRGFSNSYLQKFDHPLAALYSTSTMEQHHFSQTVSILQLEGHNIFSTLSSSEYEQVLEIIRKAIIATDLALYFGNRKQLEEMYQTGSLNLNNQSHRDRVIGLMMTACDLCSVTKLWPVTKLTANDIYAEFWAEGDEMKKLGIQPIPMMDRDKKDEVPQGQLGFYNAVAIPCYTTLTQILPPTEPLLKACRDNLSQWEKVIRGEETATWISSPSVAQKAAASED

| pIC50 (PDE10A) | pIC50 (PDE3B) | pIC50 (PDE1C) | pIC50 (PDE4B) | pIC50 (PDE11A) | pIC50 (PDE7B) | pIC50 (PDE2A) | pIC50 (PDE9A [1]) | pIC50 (PDE8A) | SMILES | inhibition on the isolated enzyme (human PDE9A) (PDE9A [2]) | inhibition of murine PDE9A (Murine PDE9A) |
| --- | --- | --- | --- | --- | --- | --- | --- | --- | --- | --- | --- |
| < 5.40 | < 5.40 | < 5.40 | < 5.40 | < 5.40 | 5.66 | < 5.40 | – | – | COc1ccc(-c2ccccc2Cc2nc(N3CCC(CCO)CC3)c(C#N)c(=O)[nH]2)cn1 [Example 38, 4-[4-(2-Hydroxyethyl)piperidin-1-yl]-2-[2-(6-methoxypyridin-3-yl)benzyl]-6-oxo-1,6-dihydropyrimidine-5-carbonitrile] | – | – |
| < 5.40 | < 5.40 | < 5.40 | < 5.40 | < 5.40 | < 5.40 | < 5.40 | 8.30 | < 5.40 | COc1ccc(-c2ccccc2Cc2nc(N3CCC[C@H]3CO)c(C#N)c(=O)[nH]2)cn1 [Example 112] | – | – |
| < 5.40 | < 5.40 | < 5.40 | < 5.40 | 5.82 | < 5.40 | < 5.40 | 7.82 | < 5.40 | COc1ccc(-c2ccccc2Cc2nc(N3CCCC3)c(C#N)c(=O)[nH]2)cn1 [Example 113] | – | – |
| – | – | – | – | – | – | – | – | – | CC(C)Cn1c(=O)n(C)c(=O)c2[nH]cnc21 [IBMX] | no inhibition | not inhibited |
| – | – | – | – | – | – | – | – | – | CC(=O)Nc1ccc(-c2c[nH]c(=O)cn2)cc1 [SKF94120] | no inhibition | – |
| – | – | – | – | – | – | – | – | – | OCCN(CCO)c1nc(N2CCCCC2)c2nc(N(CCO)CCO)nc(N3CCCCC3)c2n1 [dipyridamole] | no inhibition | – |
| – | – | – | – | – | – | – | – | – | COc1ccc(C2CNC(=O)C2)cc1OC1CCCC1 (stereo not shown) [rolipram] | no inhibition | – |
| – | – | – | – | – | – | – | – | – | CCOC(=O)C1=C[C@]2(CC)CCCN3CCc4c(n1c1ccccc41)[C@@H]32 [vinpocetine] | no inhibition | – |

— patent publication US8088769B2, “Cyanopyrimidinones” (Boehringer Ingelheim International GmbH, priority 2004, dated 2012)
